Measurements reported in US20250295639A1, “METHODS FOR TREATING HEART DISEASES” (Cytokinetics, Incorporated, priority 2024, published 2025).
Several values for one entry are separate records, joined by “and”; a condition that tells them apart may be missing. Equal entries are not always repeated.

Assays:
Type in all cases: in vivo, human
[1] = tested on: patients with symptomatic oHCM; test: SEQUOIA-HCM secondary analysis: clinical response / responder analyses (NYHA class, KCCQ-CSS, hemodynamic response, exercise capacity)
Excerpt: A secondary objective of this trial was to evaluate the effect of aficamten on patient health status, as determined by changes in the Kansas City Cardiomyopathy Questionnaire-Clinical Summary Score (KCCQ-CSS) from baseline to Week 12 and Week 24. A further secondary objective of this trial was to evaluate the effect of aficamten on New York Heart Association (NYHA) Functional Classification, as determined by the proportion of patients with ≥1 class improvement in NYHA Functional Class from baseline to Week 12 and Week 24. An exploratory objective of this trial was to evaluate the effect of aficamten on exercise capacity and functional class, as determined by comparing with baseline, the number of patients at Week 24 achieving either (1) change from baseline of ≥1.5 mL/kg/min in pVO2 AND ≥1 class improvement in NYHA Functional Class; or (2) Change from baseline of ≥3.0 mL/kg/min in pVO2 AND no worsening of NYHA Functional Class. A further exploratory objective of this trial was to evaluate the effect of aficamten on patient response over time, as determined by (1) […]; (2) proportion of patients with resting LVOT-G<30 mmHg, post-Valsalva LVOT-G<50 mmHg, […]; and (3) proportion of patients with resting LVOT-G<30 mmHg, post-Valsalva LVOT-G<50 mmHg, […] Secondary Analysis of the Results of the SEQUOIA-HCM Study. In a sub-analysis of the results of Example 8 (i.e, the results of the SEQUOIA-HCM Study) we sought to comprehensively characterize the broad clinical impact of aficamten with respect to responder analyses across a number of clinically relevant, patient-centric outcome domains. […] For patients with missing data, the last available observation (week 8 to week 20) was used. Patients with no available data on or after week 8 were classified as not meeting the efficacy criteria. Patients were then classified according to the number of efficacy outcome definitions that they met. Baseline characteristics were summarized using means and standard deviations or median and interquartile for continuous normal and skewed variables, as well as counts and percentages for categorical variables. These characteristics were compared across groups using trend tests (linear regression, chi-squared tests of trend, and Cuzick's non-parametric trend tests). Proportions of patients meeting each efficacy outcome definition were compared between treatment groups using chi-squared tests, and linear regression was used to assess the treatment effect of aficamten vs placebo on change in efficacy outcomes while also adjusting for baseline value, CPET modality at baseline and beta blocker use at baseline. No adjustments were made for multiple comparisons. Two-sided p-values less than 0.05 were considered statistically significant.

[2] = tested on: patients with symptomatic oHCM; test: SEQUOIA-HCM: patient-reported health status KCCQ-OSS and SAQ-SS
Protocol: Effect of Aficamten on Patient-Reported Health Status in Obstructive Hypertrophic Cardiomyopathy. Participants were randomized to aficamten or placebo with standard-of-care therapy for 24 weeks followed by a 4-week washout period. The Kansas City Cardiomyopathy Questionnaire (KCCQ) and Seattle Angina Questionnaire (SAQ) were administered at each study visit. Changes in mean KCCQ Overall Summary score (KCCQ-OSS) and SAQ Summary score (SAQ-SS) from baseline to week 24 were compared by treatment group using linear regression, adjusting for randomization strata. Proportions of patients with clinically important changes were compared.

[3] = tested on: patients with symptomatic oHCM; test: SEQUOIA-HCM substudy: post-exercise oxygen uptake recovery (VO2Rec)
Protocol: Patients were randomized 1:1 to aficamten or placebo for 24 weeks with a primary endpoint of pVO2. For this analysis, VO2Rec delay was measured as the time taken after exercise cessation for VO2 to decline by >0%, 12.5% (t12.5%), 25%, or 50% of pVO2. Change in t12.5% from baseline (BL) to week 24 (W24) was the primary endpoint. […]

[4] = 142 patients treated with aficamten
[5] = of the 101 aficamten symptomatic responders
[6] = aficamten arm, week 28 compared with week 24
[7] = LSM treatment difference vs placebo
[8] = change from baseline to week 24

CCc1nc(-c2ccc3c(c2)CC[C@H]3NC(=O)c2cnn(C)c2)no1 [aficamten, (R)—N-(5-(5-ethyl-1,2,4-oxadiazol-3-yl)-2,3-dihydro-1H-inden-1-yl)-1-methyl-1H-pyrazole-4-carboxamide]
patients with moderate to large KCCQ-CSS improvement of ≥10 to <20 ([1]; 142 patients on aficamten): 27%
patients with no change or a decrease in KCCQ-CSS score (<5 points) ([1]; 142 patients on aficamten): 37%
patients with small KCCQ-CSS improvement of ≥5 to <10 ([1]; 142 patients on aficamten): 13%
patients with very large KCCQ-CSS change of ≥20 ([1]; 142 patients on aficamten): 22%
patients improved from NYHA class II to I [1, 4]: 39%
patients improved from NYHA class III to I [1, 4]: 11%
patients improved from NYHA class III to II [1, 4]: 9%
patients with no change in NYHA class [1, 4]: 38%
patients worsened from NYHA class II to class III [1, 4]: 2%
>1.5 mL/kg/min increase in pVO2 and ≥1 NYHA class improvement or ≥3.0 mL/kg/min increase in pVO2 and no worsening of NYHA class ([1]; Aficamten (N = 142)): 60 (42) n (%)
≥1.5 mL/kg/min increase in pVO2 and ≥1 NYHA class improvement ([1]; Aficamten (N = 142)): 44 (31) n (%)
≥3.0 mL/kg/min increase in pVO2 and no worsening of NYHA class ([1]; Aficamten (N = 142)): 37 (26) n (%)
≥3.0 mL/kg/min increase in pVO2 and ≥1 NYHA class improvement ([1]; Aficamten (N = 142)): 21 (15) n (%)
responder endpoint, difference vs. placebo ([1]; Week 24): 28.7%
responder endpoint, number needed to treat (NNT) ([1]; Week 24): 3
patients with improvement of ≥1 NYHA functional class and/or ≥10 point increase in KCCQ-CSS (symptomatic response) ([1]; aficamten group, week 2): 36%
patients with complete hemodynamic response (rest gradient <30 mmHg and Valsalva gradient <50 mmHg) ([1]; aficamten group, week 8): 70%
patients with improvement of ≥1 NYHA functional class and/or ≥10 point increase in KCCQ-CSS (symptomatic response) ([1]; aficamten group, week 8): 58%
patients achieving ≥1 of the 4 prespecified clinical response measures ([1]; aficamten group, week 24): 97%
patients improved in 2 clinical response measures ([1]; aficamten group, week 24): 26%
patients improved in 3 clinical response measures ([1]; aficamten group, week 24): 39%
patients improved in all 4 clinical response measures ([1]; aficamten group, week 24): 23%
patients who achieved one clinical response measure ([1]; aficamten group, week 24): 9%
patients with improvement in exercise capacity, pVO2 of ≥1.5 mL/kg/min ([1]; aficamten group, week 24): 47%
patients with improvement of ≥1 NYHA functional class and/or ≥10 point increase in KCCQ-CSS (symptomatic response) ([1]; aficamten group, week 24): 71%
patients meeting responder endpoint (pVO2 ≥1.5 mL/kg/min and ≥1 NYHA improvement, or pVO2 ≥3.0 mL/kg/min and no worsening in NYHA) ([1]; aficamten, Week 24): 42% and 42.3%
patients who achieved pVO2 of ≥1.5 mL/kg/min and ≥1 improvement in NYHA class ([1]; aficamten, Week 24): 31%
patients with pVO2 ≥3.0 mL/kg/min and no worsening in NYHA ([1]; aficamten, Week 24): 26%
patients who resolved their symptoms completely (NYHA class I) ([1]; end of the treatment period): close to half of patients
symptomatic responders with improvement in both NYHA and KCCQ [1, 5]: 51%
symptomatic responders with ≤10 point improvement in KCCQ but ≥1 improvement in NYHA functional class [1, 5]: 31%
symptomatic responders with ≥10 point improvement in KCCQ-CSS and no improvement in NYHA class [1, 5]: 18%
Common Rate Difference (vs. Placebo) ([1]; pVO2/NYHA composite responder): 29
change in KCCQ-OSS after treatment withdrawal [2, 6]: −16.2±19.0
change in SAQ-OSS after treatment withdrawal [2, 6]: −17.4±21.4
24-week improvement in KCCQ-OSS (mean±SD) ([2]; aficamten group): 13.3±16.3
24-week improvement in SAQ-SS (mean±SD) ([2]; aficamten group): 11.6±17.4
patients with very large improvements (≥20 points) in KCCQ-OSS ([2]; aficamten-treated, week 24): 29.7%
patients with very large improvements (≥20 points) in SAQ-SS ([2]; aficamten-treated, week 24): 31.2%
heterogeneity of treatment benefit (KCCQ-OS, SAQ-SS) across subgroups incl. beta-blocker use at baseline ([2]; human, in vivo): No heterogeneity of treatment benefit
SAQ-SS improvement with aficamten ([2]; subgroup baseline SAQ-SS 75-100): 4.2
greater change with aficamten in SAQ-SS ([2]; subgroup baseline SAQ-SS<50): 15.6 points
very large improvement in KCCQ-OSS, NNT ([2]; vs placebo): 5.8
very large improvement in SAQ-SS, NNT ([2]; vs placebo): 5.8
Peak VO2 ([3]; Baseline): 18.4 mL/min/kg
VO2 recovery 12.5% ([3]; Baseline): 45 s
VO2 recovery 25% ([3]; Baseline): 66 s
VO2 recovery 50% ([3]; Baseline): 115 s
VO2 recovery delay ([3]; Baseline): 19 s
Peak VO2, Adjusted Δ [3, 7]: 1.7 mL/min/kg
VO2 recovery 12.5%, Adjusted Δ [3, 7]: -8 s
VO2 recovery 25%, Adjusted Δ [3, 7]: -7 s
VO2 recovery 50%, Adjusted Δ [3, 7]: -8 s
VO2 recovery delay, Adjusted Δ [3, 7]: -4 s
Peak VO2 ([3]; Week 24): 20.2 mL/min/kg
VO2 recovery 12.5% ([3]; Week 24): 38 s
VO2 recovery 25% ([3]; Week 24): 60 s
VO2 recovery 50% ([3]; Week 24): 107 s
VO2 recovery delay ([3]; Week 24): 15 s
improvement in pVO2 ([3]; aficamten group, W24): 9%
improvement in t12.5% (VO2Rec delay) ([3]; aficamten group, W24): 18%
improving t12.5% by ≥15 seconds, NNT ([3]; aficamten vs placebo): 4.8
improving t12.5% by ≥15 seconds, OR ([3]; aficamten vs placebo): 3.68
Peak VO2, Absolute Δ [3, 8]: 1.8 mL/min/kg
VO2 recovery 12.5%, Absolute Δ [3, 8]: -7 s
VO2 recovery 25%, Absolute Δ [3, 8]: -6 s
VO2 recovery 50%, Absolute Δ [3, 8]: -8 s
VO2 recovery delay, Absolute Δ [3, 8]: -4 s
